According to patent US20080234245A1, “Angiostatic Agents for Controlling Choroidal Neovascularisation After Ocular Surgery or Trauma” (priority 2004, published 2008):

What was measured:
[1] = tested on: choroidal neovascularization (CNV) in C57BL/J mice; test: Laser-induced choroidal neovascularization (CNV) in mice, rupture of Bruch's membrane; assay type: in vivo, mouse; settings: for CNV versus vehicle-injected controls: single 5 μl intravitreal injection, 14 days post-laser
Description: Choroidal neovascularization (CNV) was induced in C57BL/J mice by rupturing Bruch's membrane via focal laser photocoagulation (FIG. 3). (Tobe T, et al., AM. J. PATHOL., 153:1641-1646 (1998)). Three to four retinal burns were placed in randomly assigned eye using the Alcon 532 nm EyeLite laser (75 μm spot size, 0.1 seconds duration, 120 mW) with a slit lamp delivery system. The laser burns were used to generate a rupture in Bruch's membrane, which was indicated opthalmoscopically by the formation of a bubble under the retina. Only mice with laser burns that produced three bubbles per eye were included in the study. Burns were typically placed at the 3, 6, 9 or 12 o'clock positions in the posterior pole of the retina, avoiding the branch retinal arteries and veins.
Each mouse was randomly assigned into one of the following treatment groups after laser: noninjected controls, sham-injected controls, vehicle-injected mice, or one of three anecortave acetate-injected groups. Control mice received laser photocoagulation in both eyes, where one eye received a sham injection, i.e. a pars plana needle puncture. For intravitreal-injected animals, one laser-treated eye received a 5 μl intravitreal injection of 0%, 0.1%, 1%, or 10% anecortave acetate. The intravitreal injection was performed immediately after laser photocoagulation.
Fourteen days post-laser, all mice were euthanized and systemically perfused with fluorescein-labeled dextran. Eyes were then harvested and prepared as choroidal flat mounts, and the 2-dimensional CNV area was quantified with computerized digital analysis, (Mori K., et al., AM. J. PATHOL. 159:313-320 (2001)). The median CNV area/burn per mouse per treatment was used for statistical analysis; P≦0.05 was considered significant.

[2] = Clark 1999; cited from earlier work
[3] = tested on: posterior segment neovascularization (NV); settings: intravitreal injection, rat OIR model (Penn 2001); cited from earlier work

CC(=O)OCC(=O)[C@@]1(O)CC[C@H]2[C@@H]3CCC4=CC(=O)CC[C@]4(C)C3=CC[C@@]21C [anecortave acetate, 4,9(11)-pregnadien-17α,21-diol-3,20-dione-21-acetate]
CNV versus vehicle-injected controls ([1]; 0.1% anecortave acetate): No difference | CNV versus vehicle-injected controls ([1]; 1% anecortave acetate): No difference | CNV development seen as hyperfluorescent area at the site of laser photocoagulation (FIG. 4) ([1]; 10% anecortave acetate versus controls, choroidal flat mounts, fluorescein-labeled dextran): gross reduction in CNV development | effect on laser-induced choroidal neovascularization (FIG. 5) ([1]; single intravitreal injection in the mouse): inhibits laser-induced choroidal neovascularization | conventional glucocorticoid (anti-inflammatory) or mineralocorticoid activity [2]: devoid of conventional glucocorticoid (anti-inflammatory) or mineralocorticoid activity | efficacy against posterior segment neovascularization (NV) [3]: reproducible efficacy
